The record followed here is patent US20230331779A1, “BISPECIFIC FUSION POLYPEPTIDE COMPOUND” (SHAANXI MICOT TECHNOLOGY CO., LTD., priority 2020, published 2023).

Read-outs that look alike come from different tables or passages of the source.

Test [1] in a line: Plasma PTH in 5/6 nephrectomy rats (secondary hyperparathyroidism model). Conditions: 3.0 mg/kg s.c. three times a week. In kind it is in vivo, rat. Here is the method:
Male SD rats were divided into a sham operation group and a 5/6 nephrectomy group (5/6Nx). Rats in the nephrectomy group underwent 5/6 nephrectomy, and were fed with high-phosphorus diet for two weeks after the operation to accelerate the induction of the secondary hyperparathyroidism rat model. After being fed with high-phosphorus diet for 3 weeks, the model rats were randomly divided into 6 groups, a 5/6Nx group (Vehicle), a positive control drug etelcalcetide group (3.0 mg/kg) and 4 groups of the compound of Example 1 (0.5, 1.0, 2.0, 4.0 mg/kg). The rats were administered subcutaneously three times a week for 6 consecutive weeks. Before the first administration, after the first administration, and 4 hours after administration in the 2nd, 4th, and 6th week, blood samples were collected from rats, and the plasma and serum were separated for the detection of the content of PTH in the plasma at each time point.

Test [2] is described as follows: Cortical bone porosity in adenine-gavage SHPT rats (Micro CT of femur). In kind it is in vivo, rat. To be noted: 3.0 mg/kg s.c. three times a week for six weeks, Mean ± SEM. Here is the method: According to the Yokozawz method, SD rats were given adenine gavage to establish an animal model of chronic renal failure, and fed with a high-phosphorus diet to induce a model of secondary hyperparathyroidism. Rats were fed until the end of the experiment, and model rats were screened according to the content of PTH in plasma. According to the PTH content and body weight, the model rats were randomly divided into 5 groups: a normal saline group, an etelcalcetide (3.0 mg/kg, dissolved in normal saline) group, 3 groups of Example 1 (1.0 mg/kg, 2.0 mg/kg and 4.0 mg/kg, dissolved in normal saline), and subcutaneously administered three times a week for six consecutive weeks at 1.0 ml/kg per rat. Six weeks later, the left femur of the rat was taken, the muscle and connective tissue were removed, and the femur was placed in a 4% formalin solution. Micro CT scanning was performed 24 hours later, and data was subjected analysis.

The target of test [3] is T1, calcium-sensing receptor (CASR) (Homo sapiens, UniProt P41180).
T1 construct: expressed in transfected cells; host or cells: HEK293-CaSR cells
T1 sequence (P41180 20-1078): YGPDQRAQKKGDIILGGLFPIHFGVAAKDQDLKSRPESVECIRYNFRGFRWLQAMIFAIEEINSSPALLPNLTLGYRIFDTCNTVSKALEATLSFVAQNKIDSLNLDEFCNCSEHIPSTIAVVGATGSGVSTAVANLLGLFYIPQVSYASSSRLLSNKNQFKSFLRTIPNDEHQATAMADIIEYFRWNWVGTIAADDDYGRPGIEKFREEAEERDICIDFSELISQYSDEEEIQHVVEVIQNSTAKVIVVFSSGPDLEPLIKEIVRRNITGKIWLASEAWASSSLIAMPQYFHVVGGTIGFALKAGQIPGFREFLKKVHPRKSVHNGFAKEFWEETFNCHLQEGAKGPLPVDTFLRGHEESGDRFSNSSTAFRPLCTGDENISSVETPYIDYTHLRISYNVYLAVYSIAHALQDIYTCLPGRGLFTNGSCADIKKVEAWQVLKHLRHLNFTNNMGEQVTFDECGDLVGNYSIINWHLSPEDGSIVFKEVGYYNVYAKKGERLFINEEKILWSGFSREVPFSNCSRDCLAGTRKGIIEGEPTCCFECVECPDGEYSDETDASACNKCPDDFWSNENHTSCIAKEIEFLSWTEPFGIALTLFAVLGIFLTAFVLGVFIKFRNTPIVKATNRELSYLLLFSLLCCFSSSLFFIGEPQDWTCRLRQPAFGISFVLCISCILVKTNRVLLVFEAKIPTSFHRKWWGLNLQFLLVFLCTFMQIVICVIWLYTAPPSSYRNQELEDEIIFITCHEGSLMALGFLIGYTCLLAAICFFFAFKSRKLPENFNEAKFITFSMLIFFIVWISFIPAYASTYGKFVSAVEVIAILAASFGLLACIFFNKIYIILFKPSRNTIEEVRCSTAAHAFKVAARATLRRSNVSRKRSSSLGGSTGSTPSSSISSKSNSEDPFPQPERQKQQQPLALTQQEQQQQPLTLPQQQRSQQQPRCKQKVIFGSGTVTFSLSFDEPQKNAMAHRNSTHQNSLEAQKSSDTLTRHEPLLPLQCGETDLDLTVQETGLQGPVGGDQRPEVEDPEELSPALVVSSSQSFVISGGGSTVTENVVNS
The experiment in a line: CaSR activation, HTRF IP-1 competition method in HEK293-CaSR cells. In kind it is cell-based. The text has this:
In the CaSR activation experiment, the Homogeneous Time-Resolved Fluorescence (HTRF) IP-1 (myolnositol 1 phosphate) competition method was used to detect the effect of the polypeptide of Example 1 on CaSR.
On the technique in general: Time-resolved FRET reads energy transfer from a long-lived donor to a nearby acceptor.

Test [4] can be described thus: Effect of single intravenous injection on blood calcium in normal rats. In kind it is in vivo, rat. Conditions: for blood calcium level after a single intravenous bolus injection: normal SD rats. The protocol: (§1) Test method: SPF grade SD rats, weighing 250-280 g, were randomly divided into 7 groups, 6 administration groups and 1 blank control group (Vehicle=normal saline). The test samples were prepared into a solution with normal saline for administration. The test compound was administered by a single tail vein injection (1 mL/kg) at a dose of 0.5 mg/kg, 1.5 mg/kg and 4.5 mg/kg, respectively. Serum calcium (mmol/L) and phosphorus levels (mmol/L) were measured at 0 hour and at 4, 8 and 16 hours after administration.
(§2) Data processing: The concentrations of PTH, calcium and phosphorus in each group and at each time point were statistically analyzed using the graphpad 6.0 software.

A short description of test [5]: Effect of single intravenous injection on blood phosphorus in normal rats. In kind it is in vivo, rat. Conditions: for blood phosphorus level after a single intravenous bolus injection: normal SD rats. Here is the method:
as §1, §2

Test [6] relates to osteoblast MC3T3-E1 Subclone 4 cells. The test can be described thus: CyQUANT in vitro proliferation of osteoblast cells. In kind it is cell-based. To be noted: FIG. 1; Example 1 effect more pronounced than that of OGP. Here is the method:
(§3) The CyQUANT cell proliferation detection kit was used to determine the in vitro proliferation effect of the polypeptide of Example 1 on osteoblast MC3T3-E1 Subclone 4 and fibroblast NIH/3T3 cells. Osteogenic growth peptide (OGP) was used as a positive control in the experiment. The polypeptide of Example 1 and OGP were prepared to the following concentrations: 10^−8 mol/L, 10^−9 mol/L, 10^−10 mol/L, 10^−11 mol/L, 10^−12 mol/L, 10^−13 mol/L, 10^−14 mol/L, 10^−15 mol/L and 10^−16 mol/L. 100 μL of medium was discarded from each well of the cell plate to be tested, and 100 μL of 2×CyQuant detection reagent was added to each well. The plate was then placed in a 37° C., 5% CO2 incubator for 60 min. Fluorescence values were read in bottom-reading mode with excitation and emission wavelengths of 480/535 nm.
(§4) % relative to Control=(reading value of compound well−reading value of blank control well)/(reading value of base control well−reading value of blank control well)×100

Test [7] concerns fibroblast NIH/3T3 cells. The test can be described thus: CyQUANT in vitro proliferation of fibroblast cells. To be noted: FIG. 1; comparable effective dose for Example 1 and OGP. In kind it is cell-based. The protocol: as §3, §4
[8] abbreviates: 0.5 mg/kg i.v., 0 h (before administration).
Setting [9] is: 1.5 mg/kg i.v., 0 h (before administration).
Where [10] appears, read: 4.5 mg/kg i.v., 0 h (before administration).

One may read the EC50 as the midpoint of the concentration-response curve.

Regarding `CC(=O)N[C@H](CSSC[C@H](N)C(=O)O)C(=O)N[C@H](C)C(=O)N[C@H](CCCNC(=N)N)C(=O)N[C@H](CCCNC(=N)N)C(=O)N[C@H](CCCNC(=N)N)C(=O)N[C@H](C)C(=O)N[C@H](CCCNC(=N)N)C(N)=O` [Etelcalcetide, etelcalcetide], the “PTH change in plasma 4 h after administration” value was −95.57 ± 0.28% in test [1] (2 weeks), −93.81 ± 0.59% in test [1] (4 weeks), −92.63 ± 0.77% in test [1] (6 weeks) and −92.03 ± 0.67% in test [1] (first administration). Besides, the Cortical bone porosity in test [2] is 4.13 ± 2.27%.

`CC(=O)N[C@H](CSSC[C@H](NC(=O)CNC(=O)CNC(=O)[C@@H](Cc1ccccc1)NC(=O)C(C)(C)NC(=O)[C@H](N)Cc1ccc(O)cc1)C(=O)O)C(=O)N[C@H](C)C(=O)N[C@H](CCCNC(=N)N)C(=O)N[C@H](CCCNC(=N)N)C(=O)N[C@H](CCCNC(=N)N)C(=O)N[C@H](C)C(=O)N[C@H](CCCNC(=N)N)C(N)=O` [Example 1]: the EC50 in test [3] (Ca2+ concentration of 1.2 mM, read-out: EC50, agonistic activity on HEK293-CaSR cells) is 84.7 µM; in test [3] (in the absence of Ca2+, read-out: EC50, agonist activity on HEK293-CaSR cells), 980 µM.

Regarding “Example 2: Ac-D-Cys-D-Ala-D-Arg-D-Arg-D-Arg-D-Ala-D-Arg-NH2 linked by disulfide bond to H-D-Tyr-D-Arg-D-Phe-Gly-Gly-L-Cys-OH (CARRRAR; D-amino acids, Ac, NH2, disulfide-linked second peptide; MOD_RES (1)..(7) Cys, Ala and Arg are D-amino acids; MOD_RES (1)..(1) Cys is acetylated; MOD_RES (7)..(7) Arg is amidated; BINDING (1)..(1) Cys is linked ot Cys in SEQ ID NO 6 via disulfide bond)”, the “blood calcium level after a single intravenous bolus injection” value in test [4] (setting [8]) came out at 2.42 ± 0.02 mmol/L; in test [4] (0.5 mg/kg i.v., 4 h), 2.05 ± 0.04 mmol/L; in test [4] (0.5 mg/kg i.v., 8 h) it was 2.20 ± 0.02 mmol/L; in test [4] (0.5 mg/kg i.v., 16 h), 2.27 ± 0.01 mmol/L; in test [4] (setting [9]), 2.41 ± 0.06 mmol/L; in test [4] (1.5 mg/kg i.v., 4 h), 2.02 ± 0.06 mmol/L. Further, the “blood calcium level after a single intravenous bolus injection” value is 1.84 ± 0.04 mmol/L in test [4] (1.5 mg/kg i.v., 8 h); 2.10 ± 0.03 mmol/L in test [4] (1.5 mg/kg i.v., 16 h); 2.45 ± 0.02 mmol/L in test [4] (setting [10]); 1.79 ± 0.03 mmol/L in test [4] (4.5 mg/kg i.v., 4 h); 1.53 ± 0.03 mmol/L in test [4] (4.5 mg/kg i.v., 8 h); 1.64 ± 0.17 mmol/L in test [4] (4.5 mg/kg i.v., 16 h). For the same compound, the “blood calcium levels compared with the concentration before administration (in words)” value in test [4] (normal rats, single tail vein bolus injection, each administration group, P≤0.01) is recorded as “decreased significantly”. Besides, the “time at which serum phosphorus level reached the highest” value in test [5] (high-dose group (4.5 mg/kg)) was determined as 8 h; in test [5] (low-dose group (0.5 mg/kg and 1.5 mg/kg)), 4 h. The “blood phosphorus level after a single intravenous bolus injection” value is given as 2.70 ± 0.06 mmol/L in test [5] (setting [8]); 2.78 ± 0.14 mmol/L in test [5] (0.5 mg/kg i.v., 4 h); 2.67 ± 0.06 mmol/L in test [5] (0.5 mg/kg i.v., 8 h); 2.49 ± 0.08 mmol/L in test [5] (0.5 mg/kg i.v., 16 h); 2.65 ± 0.08 mmol/L in test [5] (setting [9]); 3.04 ± 0.08 mmol/L in test [5] (1.5 mg/kg i.v., 4 h). Besides, the “blood phosphorus level after a single intravenous bolus injection” value in test [5] (1.5 mg/kg i.v., 8 h) was 3.05 ± 0.08 mmol/L; in test [5] (1.5 mg/kg i.v., 16 h) it was 2.47 ± 0.06 mmol/L; in test [5] (setting [10]), 2.63 ± 0.02 mmol/L; in test [5] (4.5 mg/kg i.v., 4 h), 3.31 ± 0.08 mmol/L; in test [5] (4.5 mg/kg i.v., 8 h), 3.67 ± 0.1 mmol/L; in test [5] (4.5 mg/kg i.v., 16 h), 2.49 ± 0.06 mmol/L. In test [5] (normal rats, single tail vein bolus injection), the “effect on blood phosphorus concentration (in words)” value was “increasing the blood phosphorus concentration”.

As to Osteogenic growth peptide [OGP], the “concentration that significantly stimulated proliferation of osteoblast MC3T3-E1 Subclone 4 cells” value in test [6] is reported as 10^−8 to 10^−16 M. The “concentration that significantly stimulates proliferation of fibroblast NIH3T3 cells (effective dose)” value in test [7] is 10^−8 M.
